Data from PMC5572722, “Dimerization in tailoring uptake efficacy of the HSV-1 derived membranotropic peptide gH625” (Scientific Reports, 2017).
Positions of bridges follow the written chain, without caps; N, C: chain ends. Residues, ends and D or L forms follow the SMILES beside them. Chains are numbered I, II in the order given. No end group written: not given here.

Legend:
[1] = lipid 0.1 mM, 25 °C, outer NBD reduced with 100 mM dithionite, average of three experiments
Experimental: The extent of lipid mixing between only the inner monolayers of vesicles in solution, labelled with NBD and Rho, was determined adding an aqueous reducing agent (dithionite) which eliminated the NBD fluorescence from the vesicle membranes’ outer monolayer.
Figure 2 Inner monolayer in DOPC/Chol 60/40 (mol/mol) (A) and DOPG/Chol 60/40 (mol/mol) (B). […] Lipid concentration is 0.1 mM. Percentage of inner monolayer fusion as a function of the peptide/lipid ratio is reported and each trace represents an average of three independent experiments.
Membrane fusion was monitored by the fluorescence resonance energy transfer assay (FRET)[70] at 25 °C. Two populations of LUVs, one labelled with 0.6 mol% of NBD (donor) and Rho (acceptor) and one unlabelled were mixed and the variation in NBD fluorescence due to membrane fusion was determined. After the addition of aliquots of peptides the change in donor emission (excitation wavelength 465 nm, emission wavelength 530 nm) was monitored. […] The 100% of fusion was determined upon the addition of Triton X-100 (0.05% v/v). All results are an average of at least three experiments. A cut off filter at 515 nm was used.
The dithionite was removed through size exclusion chromatography, Sephadex G-50 DNA Grade, (GE Healthcare, Pharmacia, Uppsala, Sweden) with buffer containing 10 mM TRIS, 100 mM NaCl, and 1 mM EDTA, pH 7.4.

[2] = Peptide aggregation, Thioflavin T (ThT) fluorescence; type: physicochemical; conditions: ThT 25 μM, 0.1 mM DOPG/Chol 60/40 LUVs, 100 mM NaCl, 10 mM Tris–HCl pH 7.4, 25 °C
Experimental: Figure 4 Panel A reports the quenching of tryptophan by acrylamide. Stern-Volmer plots of acrylamide quenching of gH625, gH625-H7, gH625-G7 in buffer (closed symbols) and in LUVs composed of DOPG/Chol 60/40 (mol/mol) (open symbols). Peptide concentration is 4 μM. Panel B reports the […] as a function of the peptide/lipid ratio of gH625, gH625-H7, gH625-G7 in buffer (closed symbols) and in 0.1 mM LUVs composed of DOPG/Chol 60/40 (mol/mol) (open symbols).
The three peptides are not aggregated in buffer as evidenced by the fact that the fluorescence remained unaltered after the addition of the peptides (see closed symbols). On the contrary, they all caused a progressive aggregation in LUVs as the fluorescence change increased dramatically.
Peptide aggregation was monitored using ThioflavinT (ThT), which combines rapidly with aggregated peptides producing a new excitation maximum at 450 nm (slit width, 5 nm) and an enhanced emission at 482 nm (slit width, 5 nm)[43]. This experiment was conducted in LUVs (final phospholipid concentration of 0.1 mM) and buffer containing 25 μM ThT in 100 mM NaCl, 10 mM Tris–HCl, pH 7.4. Fluorescence was measured before and after the addition of peptides. In particular, we tested the following peptide concentrations 0.005, 0.01, 0.015, 0.02, 0.03, 0.04, 0.05 and 0.07 mM at 25 °C. Aggregation (A) was determined according to the following equation7 %A=(Ff−F0)/(Fmax−F0)×100 where Ff is the value of fluorescence after peptide addition, F0 the initial fluorescence in the absence of peptide and Fmax is the fluorescence maximum obtained immediately after peptide addition. Kinetic data were obtained at a concentration of 4 μM.

[3] = Circular dichroism: helix content and θ222/θ208 ratio; type: physicochemical; conditions: CD, peptide 8 μM; for helix content in 20% TFE: room temperature, from MRE at 222 nm; for helix content in 20% TFE / ratio θ222/θ208 in TFE: 20% TFE; for ratio θ222/θ208 in TFE / ratio θ222/θ208 in lipids / ratio θ222/θ208 in buffer: <0.8 monomeric, >1.0 oligomeric state; for helix content in DOPG/Chol / ratio θ222/θ208 in lipids: DOPG/Chol 60/40 LUVs; for helix content in DOPG/Chol: P/L 0.05, from MRE at 222 nm; for ratio θ222/θ208 in lipids: P/L 0.05; for helix content in buffer: sodium phosphate 5 mM pH 7.4, room temperature, from MRE at 222 nm (Chakrabartty et al.)
Excerpt: The circular dichroism (CD) analysis was used to reveal changes of the secondary structure with respect to the parent peptide in different experimental conditions (Figure 7). […] The helix content is probably underscored because oligomerization processes are taking place in this condition. The CD spectra were also obtained in presence of DOPG/Chol.
Figure 7 Circular dichroism spectra of gH625, gH625-H7 and gH625-G7 in buffer (A), 20% TFE (B) and DOPG/Chol 60/40 (mol/mol) LUVs (C). Peptide concentration used is 8 μM in all conditions tested and the peptide/lipid ratio is 0.05 in condition C.
The ratio of the ellipticities at 222 and 208 nm can be utilized to distinguish between monomeric and oligomeric states of helices, [49]; when the ratio θ222/θ208 is lower than 0.8, the peptide is essentially in its monomeric state, and when the ratio exceeds the value of 1.0, it is in its oligomeric state. The data reveal that in presence of TFE and of lipids, gH625 adopts an α-helical conformation with the monomer/oligomer equilibrium shifted toward the oligomeric state with a ratio θ222/θ208 of approximately 0.9 in both conditions, while in buffer the ratio decreases to 0.5 indicating a monomeric state. […] (Figure 7B,C). We repeated the experiment after centrifugation to remove eventual precipitated peptides from solution, however, the aggregates were molecular in size, and centrifugation had no effect on the spectra. The same analysis were performed on gH625-H7. The peptide adopts an α-helical conformation also in buffer, with a ratio θ222/θ208 of approximately 0.7, 0.9 and 1.2 in buffer, TFE and lipids.
CD spectra were recorded in a 1.0 or 0.1 cm quartz cell at room temperature using a Jasco J-715 spectropolarimeter. The spectra are an average of 3 consecutive scans from 260 to 195 nm, recorded with a band width of 3 nm, a time constant of 16 s, and a scan rate of 10 nm/min. Spectra were recorded and corrected for the background contributions by substracting blank samples. Mean residue ellipticities (MRE) were calculated using the expression MRE = Obsd/(lcn), where Obsd is the ellipticity measured in millidegrees, l is the path length of the cell in cm, c is the peptide concentration in mol/l, and n is the number of amino acid residues in the peptide. The peptide concentration was 8 μM both in buffer (sodium phosphate 5 mM pH 7.4) and at different percentages of TFE. Peptide samples in DOPG/Chol (60/40 mol/mol) were prepared using the following protocol[32]: all peptides were first dissolved in TFE; immediately after preparation, the peptide solution was added to an equal volume of a chloroform/methanol solution containing the appropriate lipid concentration; solutions were dried with a nitrogen gas stream and lyophilized overnight; the dry samples were rehydrated with buffer to yield a final peptide concentration of 8 μM with a P/L ratio of 0.05 and extruded. The percentage of helix was calculated from measurements of their mean residue ellipticity at 222 nm[47]. We used [ϑ]222 values of 0 and −40.000(1–2.5/n) deg cm^2 dmol^−1 per amino acid residue for 0% and 100% helicity; n is the number of amino acid residues.

CC[C@H](C)[C@H](NC(=O)[C@H](CC(C)C)NC(=O)[C@H](C)NC(=O)[C@H](CC(N)=O)NC(=O)[C@H](Cc1ccc(O)cc1)NC(=O)[C@H](Cc1c[nH]cn1)NC(=O)[C@H](C)NC(=O)[C@H](Cc1c[nH]c2ccccc12)NC(=O)[C@H](CCCNC(=N)N)NC(=O)[C@@H](NC(=O)[C@H](CC(C)C)NC(=O)[C@@H](NC(=O)[C@H](CO)NC(=O)[C@H](C)NC(=O)[C@H](CC(C)C)NC(=O)CNC(=O)[C@@H](N)Cc1c[nH]cn1)[C@@H](C)O)[C@@H](C)O)C(=O)N[C@@H](CCCNC(=N)N)C(=O)N[C@@H](C)C(=O)N[C@@H](Cc1ccccc1)C(=O)NCC(=O)NCC(=O)NCC(=O)N[C@@H](CCCCN)C(=O)N[C@@H](CCCCN)C(=O)N[C@@H](CCCCN)C(=O)N[C@@H](CCCCN)C(N)=O [gH625-G7] (H-HGLASTLTRWAHYNALIRAFGGGKKKK-NH2)
fusion of the inner monolayer, DOPC/Chol LUVs [1]: only a small fusion
peptide aggregation in LUVs [2]: oligomerize significantly
helix content in 20% TFE [3]: 36%
ratio θ222/θ208 in TFE [3]: 0.7
helix content in DOPG/Chol [3]: 55%
ratio θ222/θ208 in lipids [3]: 1.0
helix content in buffer [3]: 7%

I: HGLASTLTRWAHYNALIRAFGCGKKKK-NH2 / II: HGLASTLTRWAHYNALIRAFGCGKKKK-NH2 (disulfide I:22-II:22) [gH625-H7]
fusion of the inner monolayer, DOPC/Chol LUVs [1]: complete fusion
fusion of the inner monolayer, DOPG/Chol LUVs [1]: complete fusion
peptide aggregation in LUVs [2]: oligomerize significantly
helix content in 20% TFE [3]: approximately 20%
ratio θ222/θ208 in TFE [3]: approximately 0.9
ratio θ222/θ208 in lipids [3]: ~1.2
ratio θ222/θ208 in buffer [3]: approximately 0.7
helix content in buffer [3]: 8%

CC[C@H](C)[C@H](NC(=O)[C@H](CC(C)C)NC(=O)[C@H](C)NC(=O)[C@H](CC(N)=O)NC(=O)[C@H](Cc1ccc(O)cc1)NC(=O)[C@H](Cc1c[nH]cn1)NC(=O)[C@H](C)NC(=O)[C@H](Cc1c[nH]c2ccccc12)NC(=O)[C@H](CCCNC(=N)N)NC(=O)[C@@H](NC(=O)[C@H](CC(C)C)NC(=O)[C@@H](NC(=O)[C@H](CO)NC(=O)[C@H](C)NC(=O)[C@H](CC(C)C)NC(=O)CNC(=O)[C@@H](N)Cc1c[nH]cn1)[C@@H](C)O)[C@@H](C)O)C(=O)N[C@@H](CCCNC(=N)N)C(=O)N[C@@H](C)C(=O)N[C@@H](Cc1ccccc1)C(N)=O [gH625] (H-HGLASTLTRWAHYNALIRAF-NH2)
fusion of the inner monolayer, DOPC/Chol LUVs [1]: only a small fusion
peptide aggregation in LUVs [2]: lower aggregation at low peptide/lipid ratio
helix content in 20% TFE [3]: 22%
ratio θ222/θ208 in TFE [3]: approximately 0.9
helix content in DOPG/Chol [3]: 37%
ratio θ222/θ208 in lipids [3]: approximately 0.9
ratio θ222/θ208 in buffer [3]: 0.5
helix content in buffer [3]: 5%
